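GI50 = concentration required for 50% inhibition of growth. TGI: total growth inhibition.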
Tests used:
Experiment in all cases: NCI-60 cell line screen, 384-well format
[1] = test system: SK-OV-3 ovarian
[2] = test system: COLO 205 colon
[3] = test system: HCC-2998 colon
[4] = test system: MALME-3M melanoma
[5] = test system: SN12C renal
[6] = test system: SF-539 CNS
[7] = test system: UACC-257 melanoma
[8] = test system: SNB-19 CNS
[9] = test system: NCI/ADR-RES ovarian
[10] = test system: OVCAR-3 ovarian
[11] = test system: T-47D breast
[12] = test system: SF-268 CNS
[13] = test system: HL-60(TB) leukemia
[14] = test system: SF-295 CNS
[15] = test system: K-562 leukemia
[16] = test system: CCRF-CEM leukemia
[17] = test system: PC-3 prostate
[18] = test system: A549 NSCLC
[19] = test system: HCT-116 colon
[20] = test system: A498 renal
[21] = test system: DU-145 prostate
[22] = test system: LOX IMVI melanoma
[23] = test system: NCI-H322M lung
[24] = test system: MDA-MB-435 melanoma
[25] = test system: 786-0 renal
[26] = test system: NCI-H23 lung
[27] = test system: OVCAR-5 ovarian
[28] = test system: OVCAR-8 ovarian
[29] = test system: BT-549 breast
[30] = test system: MCF7 breast
[31] = test system: UACC-62 melanoma
[32] = test system: NCI-H226 lung
[33] = test system: U251 glioblastoma
[34] = test system: SK-MEL-5 melanoma
[35] = test system: CAKI-1 renal
[36] = test system: MDA-MB-231 breast
[37] = test system: MOLT-4 leukemia
[38] = test system: HT29 colon
[39] = test system: SK-MEL-2 melanoma
[40] = test system: HOP-92 NSCLC
[41] = test system: UO-31 renal
[42] = test system: M14 melanoma
[43] = test system: OVCAR-4 ovarian
[44] = test system: MDA-MB-468 breast
[45] = test system: RXF 393 renal
[46] = test system: SK-MEL-28 melanoma
[47] = test system: TK-10 renal
[48] = test system: SR leukemia
[49] = test system: KM12 colon
[50] = test system: HOP-62 NSCLC
[51] = test system: ACHN renal
[52] = test system: NCI-H460 NSCLC
[53] = test system: HCT-15 colon
[54] = test system: SW-620 colon
[55] = test system: NCI-H522 lung
[56] = test system: IGROV1 ovarian

With `Cc1c2c(nn1C)CSCc1cc(n(C)n1)CSc1cc(c3ccccc3c1)OCCCc1c(C(=O)O)n(C)c3c-2c(Cl)ccc13` the GI50 [1] was 6.18 µM, the TGI [1] was 19.2 µM and the GI50 [2] was 5.21 µM. For the same compound, the TGI [2] was 17.3 µM, the GI50 [3] was 1.11 µM and the TGI [3] was 3.94 µM. For the same compound, the GI50 [4] was 1.76 µM, the TGI [4] was 4.45 µM and the GI50 [5] was 3.4 µM. The TGI [5] was 13.4 µM, the GI50 [6] was 1.74 µM and the TGI [6] was 4.35 µM. For the same compound, the GI50 [7] was 2.59 µM, the TGI [7] was 9.27 µM and the GI50 [8] was 3.5 µM. The TGI [8] was 12 µM, the GI50 [9] was 12 µM and the TGI [9] was 24.4 µM. The GI50 [10] was 1.76 µM, the TGI [10] was 3.69 µM and the GI50 [11] was 2.3 µM. For the same compound, the TGI [11] was 8.32 µM, the GI50 [12] was 3.04 µM and the TGI [12] was 11.9 µM. It also gave a GI50 [13] of 0.0122 µM, a TGI [13] of 0.0248 µM and a GI50 [14] of 1.85 µM. It also gave a TGI [14] of 4.23 µM, a GI50 [15] of 3.78 µM and a TGI [15] of 13.1 µM. For the same compound, the GI50 [16] was 0.631 µM, the TGI [16] was 2.33 µM and the GI50 [17] was 3.04 µM. The TGI [17] was 9.02 µM, the GI50 [18] was 3.94 µM and the TGI [18] was 15.1 µM. The GI50 [19] was 2.41 µM, the TGI [19] was 6.04 µM and the GI50 [20] was 3.69 µM. It also gave a TGI [20] of 14.1 µM, a GI50 [21] of 2.98 µM and a TGI [21] of 8.97 µM. It also gave a GI50 [22] of 3.01 µM, a TGI [22] of 10.1 µM and a GI50 [23] of 8.43 µM. For the same compound, the TGI [23] was 20.8 µM, the GI50 [24] was 1.01 µM and the TGI [24] was 13.2 µM. For the same compound, the GI50 [25] was 3.06 µM, the TGI [25] was 11.5 µM and the GI50 [26] was 0.185 µM. It also gave a TGI [26] of 0.861 µM, a GI50 [27] of 3.99 µM and a TGI [27] of 14 µM. For the same compound, the GI50 [28] was 4.01 µM, the TGI [28] was 15.3 µM and the GI50 [29] was 1.62 µM. The TGI [29] was 4.58 µM, the GI50 [30] was 0.336 µM and the TGI [30] was 2.75 µM. The GI50 [31] was 0.134 µM, the TGI [31] was 0.349 µM and the GI50 [32] was 2.59 µM. For the same compound, the TGI [32] was 7.4 µM, the GI50 [33] was 2.35 µM and the TGI [33] was 4.92 µM. The GI50 [34] was 1.23 µM, the TGI [34] was 2.69 µM and the GI50 [35] was 5.74 µM. For the same compound, the TGI [35] was 18.2 µM, the GI50 [36] was 6.22 µM and the TGI [36] was 18.5 µM. For the same compound, the GI50 [37] was 0.0856 µM, the TGI [37] was 0.236 µM and the GI50 [38] was 3.49 µM. It also gave a TGI [38] of 11.3 µM, a GI50 [39] of 0.0454 µM and a TGI [39] of 0.189 µM. For the same compound, the GI50 [40] was 2.08 µM, the TGI [40] was 5.64 µM and the GI50 [41] was 3.82 µM. For the same compound, the TGI [41] was 14.6 µM, the GI50 [42] was 2.8 µM and the TGI [42] was 8.79 µM. The GI50 [43] was 0.459 µM, the TGI [43] was 3.54 µM and the GI50 [44] was 0.126 µM. The TGI [44] was 0.581 µM, the GI50 [45] was 0.375 µM and the TGI [45] was 2.13 µM. For the same compound, the GI50 [46] was 2.51 µM, the TGI [46] was 7.44 µM and the GI50 [47] was 3.3 µM. The TGI [47] was 12.7 µM, the GI50 [48] was 0.0157 µM and the TGI [48] was 0.0329 µM. It also gave a GI50 [49] of 2.13 µM, a TGI [49] of 5.14 µM and a GI50 [50] of 2.41 µM. For the same compound, the TGI [50] was 10.6 µM, the GI50 [51] was 4.09 µM and the TGI [51] was 15.9 µM. The GI50 [52] was 1.96 µM, the TGI [52] was 4.68 µM and the GI50 [53] was 4.49 µM. The TGI [53] was 15.5 µM, the GI50 [54] was 3.96 µM and the TGI [54] was 13.6 µM. For the same compound, the GI50 [55] was 0.0686 µM, the TGI [55] was 0.581 µM and the GI50 [56] was 2.85 µM. The TGI [56] was 10.9 µM.

— PubChem BioAssay (NCI)
